Reference: patent US9970947B2, “Fluorescent probe” (MUSC FOUNDATION FOR RESEARCH DEVELOPMENT, priority 2016, dated 2018)
“Also recorded” adds a separate entry of the source.

How the values were obtained:
[1] = Absorption, excitation and emission spectra of mitoferrofluor; format: physicochemical
[2] = Cell-free MFF fluorescence as a function of Fe3+ concentration; format: physicochemical; conditions: cell free medium
Experimental: (§1) MFF (0-10 μM) was dissolved in medium at the presumed intramitochondrial pH (pH 8.0, 37° C.) (FIG. 2, left panel). Fluorescence of MFF (1 μM) was measured as a function of increasing ferrous ammonium sulfate (Fe^2+) and ferric chloride (Fe^3+) concentration from freshly prepared stock solutions (1 mM). Fluorescence intensity is shown in arbitrary units (a.u.). (FIG. 2, right panel).

[3] = system: mitochondrial chelatable Fe^2+ in cultured rat hepatocytes; experiment: Mitoferrofluor quenching after mitochondrial Fe2+ uptake; format: cell-based
Experimental: (§2) Rhodamine 123 (Rh123) and MitoTracker Green (MTG) were obtained from Molecular Probes. Primary rat hepatocytes were isolated from overnight-fasted male Sprague-Dawley rats (200-250 g) by collagenase perfusion. Hepatocytes were plated on Type 1 collagen-coated MatTek dishes at a density of 300,000 cells per well and cultured overnight in Waymouth's MB-742/1 growth medium containing 27 mM NaHCO3, 2 mM L-glutamine, 10% fetal calf serum, 100 nM insulin and 10 nM dexamethasone, pH 7.4 at 37° C. in 5% CO2/air.
(§3) Confocal images of hepatocytes were taken with a Zeiss LSM 510 inverted laser scanning confocal microscope (Carl Zeiss, Germany) using a 63×oil immersion objective.
Overnight-cultured rat hepatocytes were loaded with MFF (1 μM for 20 min), washed out and incubated for 60 min. Rh123 (0.5 μM for 20 min) was then loaded. Fe^2+ was added as ferrous ammonium sulfate (10 mM). Fe^2+ addition quenched MFF fluorescence by ˜72%.

[4] = system: mitochondria of cultured rat hepatocytes; experiment: Mitochondrial accumulation and retention of probe after depolarization, confocal imaging; format: cell-based; conditions: for retention by mitochondria after depolarization: rat hepatocytes, CCCP 10 μM, oligomycin 10 μg/ml, myxothiazol 10 μM
Experimental: as §2, §3
Overnight-cultured rat hepatocytes were loaded with MFF (1 μM for 20 min), washed and incubated for 60 min.
Overnight-cultured rat hepatocytes were loaded with MFF and MTG (both 1 μM for 20 min), washed and incubated for 60 min. Cells were then incubated with 5 mM fructose and imaged “BEFORE” and “AFTER” addition of CCCP, oligomycin and myxothiazol. […] MFF fluorescence changed essentially identically to MTG consistent with covalent labeling of mitochondrial proteins by MFF.

[5] = Cell-free MFF fluorescence as a function of Fe2+ concentration; format: physicochemical
Experimental: as §1

[6] = system: mitochondrial chelatable Fe^2+ in cultured rat hepatocytes; experiment: Mitoferrofluor fluorescence quenching after lysosomal iron release with bafilomycin A1; format: cell-based; conditions: 120 min after bafilomycin A1, vs vehicle (DMSO)
Experimental: as §2, §3
Overnight-cultured rat hepatocytes were loaded with MFF and then rhodamine 123, as described in Example 6. […] Panel C represents a quantitative analysis of 10 random fields (*p<0.05 vs vehicle, n=3).

CCN(CC)c1ccc2c(-c3ccccc3C(=O)OCCCOc3cc(OCCCBr)cc(C(=O)Nc4cc5cccnc5c5ncccc45)c3)c3ccc(=[N+](CC)CC)cc-3oc2c1.[Br-] [MFF, N-(9-(2-((3-(3-((1,10-phenanthrolin-5-yl)carbamoyl)-5-(3-bromopropoxy)phenoxy)propoxy)carbonyl)phenyl)-6-(diethylamino)-3H-xanthen-3-ylidene)-N-ethylethanaminium bromide]
fluorescence emission peak [1]: 598 nm
fluorescence excitation peak [1]: 554 nm
extinction coefficient ([1]; at 566 nm): 40,400 cm^−1/M
quenching of MFF fluorescence by Fe^3+ [2]: not by Fe^3+; also recorded: not Fe^3+ quenched
decrease of intramitochondrial MFF fluorescence ([3]; MFF-loaded hepatocytes, excess extracellular Fe^2+ added): ~80%
quenching of MFF fluorescence by Fe^2+ addition ([3]; rat hepatocytes, MFF 1 μM for 20 min, ferrous ammonium sulfate 10 mM): ~72%
accumulation into mitochondria ([4]; cultured rat hepatocytes): selectively accumulated into mitochondria
retention by mitochondria after depolarization [4]: retained by mitochondria; also recorded: MFF fluorescence was retained; also recorded: retained MFF to the same extent as MTG
IC50 ([5]; MFF 1 μM, pH 8.0, 37° C., read-out: IC50 of Fe^2+ quenching of MFF fluorescence): 1000 to 2000 nM
quenching of MFF fluorescence by Fe^2+ ([5]; cell free medium): strongly and stoichiometrically quenched by Fe^2+
quenching of mitochondrial MFF fluorescence after bafilomycin A1 [6]: became quenched; also recorded: quenched mitochondrial MFF fluorescence

CN1/C(=C/C=C/c2n(Cc3ccc(CCl)cc3)c3cc(Cl)c(Cl)cc3[n+]2Cc2ccc(CCl)cc2)Oc2ccccc21 [MTG, reference compound]
retention by mitochondria after depolarization [4]: some release of MTG into the cytosol
